Earlier results as cited in patent publication US20080168569A1, “Non-invasive methods and related compositions for identifying compounds that modify in vivo aggregations of disease-related polypeptides” (priority 2004, published 2008).

Test system: truncated DRPLA proteins that contain an expanded-polyglutamine domain
Details: in vitro; transglutaminase inhibitors

| Compound | formation of cellular aggregates of truncated DRPLA proteins |
| --- | --- |
| CN(C)c1cccc2c(S(=O)(=O)NCCCCCN)cccc12 [monodansyl cadaverine] | inhibit the formation of cellular aggregates |
| NCCSSCCN [cystamine] | inhibit the formation of cellular aggregates |
